In US20130158070A1, “CONJUGATES OF POLYUNSATURATED FATTY ACIDS AND AMINE-CONTAINING COMPOUNDS AND USES THEREOF” (priority 2010, published 2013):

Legend:
rat QT and QTc intervals = assay: Cardio toxicity: QT prolongation, ECG in anesthetized rats; assay type: in vivo
From the text: The QT interval (time from beginning of the QRS complex and to the end of the T wave) of the ECG is a measure of the duration of ventricular depolarization and repolarization. When ventricular repolarization is delayed and the QT interval is prolonged, there is an increased risk of ventricular tachyarrhythmia, including torsade de points (potentially fatal polymorphic ventricular tachycardia). As the QT interval has an inverse relationship to heart rate, the measured QT intervals are generally corrected for heart rate in order to determine whether they are prolonged relative to the baseline.
The initial evaluation of cardiac safety by ECG measurements focuses on QTc duration of MWL001 50 mg/ml concentration.
Male Sprague-Dawley rats (280-300 g of weight) were used for electrocardiographic measurements at basal conditions as well as medicated with QND and MWL. […] Electrocardiograms were recorded using disk electrodes fitted subcutaneously near the right and left axial regions and at the xiphoid cartilage and secured by surgical clips for standard Lead II recording. […] All of the data was recorded (AdInstruments PowerLab 16/30, Australia) for off line analysis.
Heart rate (RR interval), QT interval and QTc (corrected QT interval) were calculated by ECG analysis module in the LabChart 7.2.1 software and manually screened by trained technicians. […]

[1] = test system: collagen induced arthritis; assay: Collagen induced arthritis (CIA), arthritis score, paw thickness, body weight; assay type: in vivo, DBA/1J mice
Experimental: In a different study, 34 male 8-10 weeks old DBA/1J mice were used. Animals were fed ad libitum a commercial rodent diet (Teklad Certified Global 18% Protein Diet cat #: 106S8216). Animals had free access to acidified drinking water (pH between 2.5 and 3.0) obtained from the municipality supply.
The effect of MWL-002 (conjugate of DHA and taurine) was tested and compared to that of Ibuprofen. Cremophore EL was used as a vehicle.
On day 0, each mouse was anesthetized by inhalation of 3% isofluorane and injected intradermally at the base of the tail with 0.1 ml of emulsion containing 100 μg collagen, using a 1-ml glass syringe with a 26-guade needle. Booster injection was performed at day 15 to the same injection site.
The tested materials were administered 3 times a week, via IP for a total of 12 administrations starting on day 1.
Observations for clinical score were performed twice weekly until study termination.
The severity of arthritis was scored based on the level of inflammation in each of the four paws and recorded as one of five grades according to the following:
Hind paw thickness (edema) was measured by digital caliper once a week until Day 14 and thereafter twice weekly and prior to study termination. Two cross sectional areas were marked, one on the paw and the other at the ankle (tarsal joint). Two measurements were made on each section, perpendicular to each other. The results obtained were calculated as the average areas of both hind limbs per animal.
Body weight was measured prior to dosing, during the study twice a week and prior to study termination.

Compound	cardiotoxic effect (rat QT and QTc intervals; high doses, short term of 2-3 hr, compared to Quinidine)	prolongation of the QTc interval (rat QT and QTc intervals; i.v. 50-166 mg/kg, two hr period after injection)	day from which arthritis score (AS) increases ([1]; 50 mg/kg IP, 3 times a week, 12 administrations)	CIA development ([1]; 50 mg/kg IP, overall conclusion)	body weight ([1]; 50 mg/kg IP, from day 37, in comparison to the other 3 groups)	arthritis thickness index (ATI) increase ([1]; from day 0 to day 70, 50 mg/kg IP, groups 1M DHA-Tau, 2M DHA, 4M Ibuprofen)	ATI course ([1]; from day 43 until end of study, FIG. 8B)
CCC=CCC=CCC=CCC=CCC=CCC=CCCC(=O)N1CC(O)CC1C(=O)O (stereo not shown) [MWL001]	no cardiotoxic effect	did not result in prolongation	–	–	–	–	–
CC/C=C\C/C=C\C/C=C\C/C=C\C/C=C\C/C=C\CCC(=O)NCCS(=O)(=O)O [MWL002, N-docosa-4,7,10,13,16,19-hexaenoyl-taurine]	–	–	57 days	inhibits CIA development robustly	increase the body weight in a major percent	150%	almost no changes
